Where no end group is shown, it is not given here. The star is where a group is joined. For = O=C*
B1: recombinant Wnt-3a: recombinant Wnt-3a protein (R&D Systems), specificity control (protein, UniProt P56704 19-352, looked up)
Protein Wnt-3a: SYPIWWSLAVGPQYSSLGSQPILCASIPGLVPKQLRFCRNYVEIMPSVAEGIKIGIQECQHQFRGRRWNCTTVHDSLAIFGPVLDKATRESAFVHAIASAGVAFAVTRSCAEGTAAICGCSSRHQGSPGKGWKWGGCSEDIEFGGMVSREFADARENRPDARSAMNRHNNEAGRQAIASHMHLKCKCHGLSGSCEVKTCWWSQPDFRAIGDFLKDKYDSASEMVVEKHRESRGWVETLRPRYTYFKVPTERDLVYYEASPNFCEPNPETGSFGTRDRTCNVSSHGIDGCDLLCCGRGHNARAERRREKCRCVFHWCCYVSCQECTRVYDVHTCK

Test system: ERα
Test: ERα protein expression by Western blot in stimulated MDA-MB-231 cells
Format: cell-based, human
Conditions: stimulation 24 and 48 hours, rWnt-5a 0.6 μg/ml, rWnt-3a 0.1 μg/ml, peptides 100 μM
Experimental: Breast cancer cells were grown in 6 well plates, and stimulated with recombinant Wnt-5a protein (rW5a), the Wnt-5a derived Foxy-5 peptide (F5), recombinant Wnt-3a protein (rW3a), or a formylated random hexapeptide (Rdm) for 24 or 48 h. Following treatment cells were lysed and subjected to SDS-PAGE, transferred to nitrocellulose membranes and blotted for ERα expression. A: MDA-MB-231 cells stimulated with recombinant Wnt-5a, Foxy-5, Wnt-3a, Rdm. B: MDA-MB-468 cells stimulated with recombinant Wnt-5a or Foxy-5. C: 4T1 cells stimulated with recombinant Wnt-5a or Foxy-5. Positive controls (Pos) were included in order to confirm the correct band size for ERα. Two different positive controls were used: T47D cell lysates known to express ERα and MDA-MB-231 cells transiently transfected with a full length ERα plasmid, resulting in extremely high ERα expression (top row, right panel, third row, right panel).
Stimulation of cells was performed with recombinant Wnt-5a (0.6 μg/ml) and recombinant Wnt-3a (0.1 μg/ml and in a control experiment, 0.6 μg/ml) (R&D Systems Abington, UK) for times as indicated. The Wnt-5a derived formylated hexapeptide, Foxy-5 (formyl-MDGCEL) (SEQ. ID. NO. 1) designed in the laboratory of the inventors, and a formylated random hexapeptide (formyl-MSADVG) (SEQ: ID: NO: 16) were either synthesized by Pepscan Presto (Lelystad, The Netherlands) or Inbiolabs (Tallinn, Estonia). The peptides were purified by RP-HPLC and mass spectrometry, and the >95% pure peptides were synthesized three times. Cells were treated with Foxy-5 or random peptide at a concentration of 100 μM for times as indicated. All other chemicals if not otherwise stated were purchased from Sigma Chemicals (St. Louis, Mo.).
Cells were lysed in Triton lysis buffer (50 mM Tris (pH7.5), 1% Triton x-100, 140 mM NaCl, 0.5 mM EDTA, 0.5 MgCl2, 10 mM NaF) with the addition of fresh leupeptin (1 μg/ml), Pefabloc (2 mM), aprotinin (20 μg/ml) and Na3VO4 (4 mM). […] Scanning and densitometry was performed using a Bio-Rad (Hercules Calif.) GS-800 densitometer with Quantity One software. […]

Molecule	levels of ERα protein
For-MSADVG [formylated random hexapeptide, reference compound]	Neither of these stimulations resulted in increased levels
B1	Neither of these stimulations resulted in increased levels

From patent publication US20110124574A1, “RESTORATION OF ESTROGEN RECEPTOR-(ALPHA) ACTIVITY” (priority 2008, published 2011)
